Assay results as given in US6172079A, “5-substituted-3-oxadiazolyl-1,6-naphthyridin-2(1H)-one derivatives” (Dainippon Pharmaceutical Co., Ltd., priority 1997, dated 2001).
pIC50: −log10 of the molar value.

Assays:
[1] = biological target: benzodiazepine receptor; assay: Benzodiazepine Receptor Binding Assay; details: read-out: BZP-receptor Binding IC50; [3H]-diazepam 1.5 nM; rat brain crude synaptosome membrane; 0° C., 20 min
[2] = test system: GABAA receptor complex (TBPS binding); assay: TBPS Binding Assay; set-up: species or system Wistar rats; details: [35S]TBPS 0.4 nM, GABA 1 μM, rat cerebral cortex membrane, +% inverse agonistic, 0% antagonistic
Procedure: The TBPS (t-butylbicyclophosphonothionate) binding assay and the preparation of the membrane specimen were done in a similar manner to the method of Biggio, G. et al. [cf. European Journal of Pharmacology, vol.
That is, to the cerebral cortex was added a 50-fold volume of an ice-cooled buffer (a 50 mM Tris-citrate buffer containing 100 mM sodium chloride, pH 7.4) and the mixture was homogenized at 0-4° C. and then centrifuged at 20,000 g for 20 minutes. The pellets thus obtained were once subjected to homogenization in a buffer and centrifugation by the same procedure as above and then kept in freezed state at -80° C. for more than 20 hours. On the test day, the freezed pellets were thawed and then subjected twice to the homogenization-centrifugation procedure as described above.
Subsequently, the filter was moved into a liquid scintillation vial and thereto was added a liquid scintillation cocktail (ACS-II, manufactured by Amersham, USA, 10 ml) and allowed to stand for a fixed period of time. […] Separately, the same procedures were repeated in the presence of Picrotoxin to determine the non-specific binding amount. The non-specific binding amount was deducted from the total binding amount to give the specific binding amount. The binding activity of the test compound was calculated by a variation rate, i.e., a rate of the specific binding amount of the test compound to the specific binding amount in control (using a solvent).

SMILES | pIC50 [1] | TBPS binding Variation Rate [2] [%]
CCc1noc(-c2cc3c(-c4ccsc4)nccc3[nH]c2=O)n1 [Example 212] | 8.90 | 27
CCc1nc(-c2cc3c(CC4CCCCC4)nccc3[nH]c2=O)no1 [Example 24] | 8.35 | 22
CC(C)c1nc(-c2cc3c(-c4ccc(F)cc4)nccc3[nH]c2=O)no1 [Example 47] | 8.63 | -11
CCc1nc(-c2cc3c(-c4ccccc4Cl)nccc3[nH]c2=O)no1 [Example 96] | 8.55 | 16
Cc1ccc(-c2nccc3[nH]c(=O)c(-c4noc(C5CC5)n4)cc23)cc1 [Example 58] | 8.82 | -15
Cc1nc(-c2cc3c(-c4ccsc4)nccc3[nH]c2=O)no1 [Example 93] | 8.76 | 34
COc1ccccc1-c1nccc2[nH]c(=O)c(-c3nc(C)no3)cc12 [Example 185] | – | 19
Cc1nc(-c2cc3c(-c4cccc(Cl)c4)nccc3[nH]c2=O)no1 [Example 7] | 8.62 | 12
CC(C)c1noc(-c2cc3c(-c4ccc(F)cc4)nccc3[nH]c2=O)n1 [Example 228] | 8.80 | -10
CCCc1nc(-c2cc3c(C(C)C)nccc3[nH]c2=O)no1 [Example 36] | – | 15
CCc1noc(-c2cc3c(C(C)C)nccc3[nH]c2=O)n1 [Example 193] | 8.39 | 44
Cc1nc(-c2cc3c(CC(C)C)nccc3[nH]c2=O)no1 [Example 3] | 8.45 | 12
Cc1noc(-c2cc3c(-c4cccs4)nccc3[nH]c2=O)n1 [Example 189] | 9.08 | 29
Cc1noc(-c2cc3c(-c4ccccc4)nccc3[nH]c2=O)n1 [Example 175] | 8.92 | 28
CCc1nc(-c2cc3c(C4CC4)nccc3[nH]c2=O)no1 [Example 17] | 9.16 | 25
CC(C)c1nccc2[nH]c(=O)c(-c3noc(C4CC4)n3)cc12 [Example 50] | 9.06 | 40
Cc1noc(-c2cc3c(-c4ccsc4)nccc3[nH]c2=O)n1 [Example 190] | 8.80 | 34
Cc1noc(-c2cc3c(-c4ccco4)nccc3[nH]c2=O)n1 [Example 188] | 8.92 | 34
CCc1nc(-c2cc3c(C4CCCCC4)nccc3[nH]c2=O)no1 [Example 23] | 8.75 | -23
O=c1[nH]c2ccnc(-c3cccc(Cl)c3)c2cc1-c1nc(C2CC2)no1 [Example 240] | 8.60 | -13
CCc1noc(-c2cc3c(-c4ccco4)nccc3[nH]c2=O)n1 [Example 211] | 9.09 | 24
CC(C)c1noc(-c2cc3c(-c4ccco4)nccc3[nH]c2=O)n1 [Example 229] | 8.95 | 10
Cc1noc(-c2cc3c(-c4cccc(Cl)c4)nccc3[nH]c2=O)n1 [Example 180] | 8.91 | 13
CCc1noc(-c2cc3c(-c4cccc(Cl)c4)nccc3[nH]c2=O)n1 [Example 203] | 8.71 | 17
COc1ccc(-c2nccc3[nH]c(=O)c(-c4nc(C)no4)cc23)cc1 [Example 187] | 8.19 | 27
CCc1nc(-c2cc3c(C4CCC4)nccc3[nH]c2=O)no1 [Example 21] | 8.38 | 21
Cc1nc(-c2cc3c(C)nccc3[nH]c2=O)no1 [Example 2] | – | 53
Cc1ccc(-c2nccc3[nH]c(=O)c(-c4nc(C5CC5)no4)cc23)cc1 [Example 244] | 8.39 | -15

SMILES | pIC50 [1] | TBPS binding Variation Rate [2] [%]
CCc1nc(-c2cc3c(-c4cccc5ccccc45)nccc3[nH]c2=O)no1 [Example 100] | 8.88 | -23
CCc1nccc2[nH]c(=O)c(-c3noc(C4CC4)n3)cc12 [Example 48] | 8.83 | 18
CCc1nc(-c2cc3c(CC)nccc3[nH]c2=O)no1 [Example 14] | 8.02 | 38
CCc1nc(-c2cc3c(C)nccc3[nH]c2=O)no1 [Example 13] | – | 24
Cc1noc(-c2cc3c(-c4ccccc4Cl)nccc3[nH]c2=O)n1 [Example 179] | 8.33 | 37
Cc1noc(-c2cc3c(-c4cccc(F)c4)nccc3[nH]c2=O)n1 [Example 177] | – | 29
O=c1[nH]c2ccnc(-c3ccco3)c2cc1-c1nc(C2CC2)no1 [Example 245] | 9.09 | 13
Cc1noc(-c2cc3c(-c4ccc(Cl)cc4)nccc3[nH]c2=O)n1 [Example 181] | – | 13
CCCc1nc(-c2cc3c(-c4ccccc4)nccc3[nH]c2=O)no1 [Example 38] | 8.88 | 25
O=c1[nH]c2ccnc(-c3ccc(Cl)cc3)c2cc1-c1nc(C2CC2)no1 [Example 241] | 8.22 | -14
O=c1[nH]c2ccnc(-c3cccc(Cl)c3)c2cc1-c1noc(C2CC2)n1 [Example 55] | 8.78 | -16
CCc1nc(-c2cc3c(-c4cccnc4)nccc3[nH]c2=O)no1 [Example 106] | 8.71 | 20
Cc1noc(-c2cc3c(-c4ccccc4F)nccc3[nH]c2=O)n1 [Example 176] | 8.67 | 39
O=c1[nH]c2ccnc(-c3ccsc3)c2cc1-c1noc(C2CC2)n1 [Example 123] | 8.95 | 12
CCc1nc(-c2cc3c(CC(C)C)nccc3[nH]c2=O)no1 [Example 20] | 8.56 | -13
Cc1nc(-c2cc3c(-c4cccs4)nccc3[nH]c2=O)no1 [Example 92] | 9.12 | 32
CC(C)c1nc(-c2cc3c(-c4ccccc4)nccc3[nH]c2=O)no1 [Example 45] | 9.02 | -9
CC(C)c1noc(-c2cc3c(C4CC4)nccc3[nH]c2=O)n1 [Example 224] | 8.45 | -12
CCc1noc(-c2cc3c(C4CC4)nccc3[nH]c2=O)n1 [Example 194] | 8.97 | 32
Cc1noc(-c2cc3c(-c4ccc(F)cc4)nccc3[nH]c2=O)n1 [Example 178] | 8.64 | 25
Cc1nc(-c2cc3c(-c4ccc(Cl)cc4)nccc3[nH]c2=O)no1 [Example 8] | – | 13
Cc1nc(-c2cc3c(-c4ccco4)nccc3[nH]c2=O)no1 [Example 91] | 9.21 | 38
CC(C)c1nc(-c2cc3c(C(C)C)nccc3[nH]c2=O)no1 [Example 43] | – | 28
CCc1noc(-c2cc3c(-c4ccccc4)nccc3[nH]c2=O)n1 [Example 198] | 8.99 | 11
CCc1nc(-c2cc3c(-c4ccncc4)nccc3[nH]c2=O)no1 [Example 107] | 8.18 | 17
CCc1noc(-c2cc3c(-c4cccc(C)c4)nccc3[nH]c2=O)n1 [Example 206] | 8.94 | -13
CCc1noc(-c2cc3c(-c4ccccc4Cl)nccc3[nH]c2=O)n1 [Example 202] | 8.68 | 22
